# How the values were obtained:
# [1] = tested on: Meth A sarcoma, B16 melanoma or MDA-MB-435 estrogen receptor negative (ER−) breast cancer cells; conditions: subcutaneous injection of Meth A sarcoma, B16 melanoma or MDA-MB-435 cells; cited from earlier work
# endothelial cell = conditions: cited from earlier work
# angiogenesis = conditions: cited from earlier work
# microtubule = conditions: at high concentrations; cited from earlier work
# tubulin = conditions: at high concentrations; cited from earlier work
# E1-STS [2] = target: T1, E1-STS (Homo sapiens, UniProt P08842); conditions: cited from earlier work
# T1 sequence (P08842 22-583): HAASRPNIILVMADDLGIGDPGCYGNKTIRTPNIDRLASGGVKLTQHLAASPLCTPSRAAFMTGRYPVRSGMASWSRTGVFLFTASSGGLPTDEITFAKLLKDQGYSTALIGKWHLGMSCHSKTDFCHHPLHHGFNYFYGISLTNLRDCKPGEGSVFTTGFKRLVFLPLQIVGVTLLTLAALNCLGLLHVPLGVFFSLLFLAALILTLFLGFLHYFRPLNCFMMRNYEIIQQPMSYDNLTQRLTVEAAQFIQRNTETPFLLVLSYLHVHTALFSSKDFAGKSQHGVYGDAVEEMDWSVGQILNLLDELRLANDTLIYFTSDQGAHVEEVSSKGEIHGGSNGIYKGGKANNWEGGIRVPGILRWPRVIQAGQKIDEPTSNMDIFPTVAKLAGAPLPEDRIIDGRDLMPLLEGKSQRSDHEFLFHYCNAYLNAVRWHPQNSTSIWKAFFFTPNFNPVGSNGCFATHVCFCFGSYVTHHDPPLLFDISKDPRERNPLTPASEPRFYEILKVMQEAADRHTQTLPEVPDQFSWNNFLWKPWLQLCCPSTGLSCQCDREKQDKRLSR
# [3] = Distribution of compound in blood (erythrocyte binding)
# estrogen receptor [4] = test: In vitro estrogen receptor binding / displacement of radiolabelled oestradiol
# Experimental: (§1) Oestradiol Sulfamate (J995) was investigated with respect to its hormonal properties in vitro and in vivo. In vitro studies included the evaluation of its specific binding to oestrogen receptors using cytosolic preparations of uterine tissue of rats and mice and MCF-7 tumor cells. In vivo studies were performed on several animal species including intact and ovariectomised rats and cynomolgus monkeys. These species served for detailed pharmacodynamic and pharmacokinetic studies at parenteral and oral administration of the compound.
# estrogen receptor [5] = target: T2, estrogen receptor (Mus musculus, UniProt P19785); test: Specific binding of radiolabelled J995 to estrogen receptor of mice
# T2 construct: using cytosolic preparations of uterine tissue of rats and mice and MCF-7 tumor cells; from tissue; host or cells: mouse uterine cytosol
# T2 sequence (P19785 1-599): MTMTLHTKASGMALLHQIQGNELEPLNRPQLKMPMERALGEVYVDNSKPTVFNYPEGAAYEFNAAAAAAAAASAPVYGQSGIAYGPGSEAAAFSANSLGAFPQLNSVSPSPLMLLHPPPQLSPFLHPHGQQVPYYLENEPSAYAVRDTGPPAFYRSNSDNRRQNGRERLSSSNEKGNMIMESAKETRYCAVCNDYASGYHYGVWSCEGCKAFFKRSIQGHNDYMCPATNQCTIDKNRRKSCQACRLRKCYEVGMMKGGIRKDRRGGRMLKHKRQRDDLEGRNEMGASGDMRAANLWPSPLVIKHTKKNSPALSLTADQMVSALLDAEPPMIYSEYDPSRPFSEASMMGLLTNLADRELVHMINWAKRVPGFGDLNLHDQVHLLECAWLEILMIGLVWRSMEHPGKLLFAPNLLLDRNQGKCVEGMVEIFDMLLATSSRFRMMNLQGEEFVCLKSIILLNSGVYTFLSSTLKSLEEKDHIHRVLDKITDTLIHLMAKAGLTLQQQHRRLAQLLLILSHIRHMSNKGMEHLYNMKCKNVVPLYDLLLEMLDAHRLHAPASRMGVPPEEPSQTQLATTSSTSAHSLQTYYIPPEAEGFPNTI
# Experimental: as §1
# estrogen receptor [6] = target: T3, estrogen receptor (Rattus norvegicus, UniProt P06211); test: Specific binding of radiolabelled J995 to estrogen receptor of rats
# T3 construct: using cytosolic preparations of uterine tissue of rats and mice and MCF-7 tumor cells; from tissue; host or cells: rat uterine cytosol
# T3 sequence (P06211 1-600): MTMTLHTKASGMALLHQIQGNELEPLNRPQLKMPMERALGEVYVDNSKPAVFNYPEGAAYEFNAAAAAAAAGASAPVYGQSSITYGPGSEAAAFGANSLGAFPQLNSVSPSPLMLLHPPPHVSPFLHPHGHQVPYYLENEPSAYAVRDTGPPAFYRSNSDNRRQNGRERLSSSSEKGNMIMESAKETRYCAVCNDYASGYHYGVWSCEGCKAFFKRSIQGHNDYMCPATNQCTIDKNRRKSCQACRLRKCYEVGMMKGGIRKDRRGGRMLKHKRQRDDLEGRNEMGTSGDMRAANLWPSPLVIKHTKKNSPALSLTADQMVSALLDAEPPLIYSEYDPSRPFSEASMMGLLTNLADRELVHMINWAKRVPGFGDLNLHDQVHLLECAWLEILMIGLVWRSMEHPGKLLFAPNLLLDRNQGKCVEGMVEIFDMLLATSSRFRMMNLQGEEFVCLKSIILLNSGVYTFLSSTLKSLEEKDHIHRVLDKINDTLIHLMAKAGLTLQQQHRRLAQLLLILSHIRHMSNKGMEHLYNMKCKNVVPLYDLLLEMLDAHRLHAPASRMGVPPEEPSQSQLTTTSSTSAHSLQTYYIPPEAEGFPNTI
# Experimental: as §1
# estrogen receptor [7] = target: T4, estrogen receptor (Homo sapiens, UniProt P03372); test: Specific binding of radiolabelled J995 to human estrogen receptor
# T4 construct: using cytosolic preparations of uterine tissue of rats and mice and MCF-7 tumor cells; endogenous in cells; host or cells: MCF-7 cytosol
# T4 sequence (P03372 1-595): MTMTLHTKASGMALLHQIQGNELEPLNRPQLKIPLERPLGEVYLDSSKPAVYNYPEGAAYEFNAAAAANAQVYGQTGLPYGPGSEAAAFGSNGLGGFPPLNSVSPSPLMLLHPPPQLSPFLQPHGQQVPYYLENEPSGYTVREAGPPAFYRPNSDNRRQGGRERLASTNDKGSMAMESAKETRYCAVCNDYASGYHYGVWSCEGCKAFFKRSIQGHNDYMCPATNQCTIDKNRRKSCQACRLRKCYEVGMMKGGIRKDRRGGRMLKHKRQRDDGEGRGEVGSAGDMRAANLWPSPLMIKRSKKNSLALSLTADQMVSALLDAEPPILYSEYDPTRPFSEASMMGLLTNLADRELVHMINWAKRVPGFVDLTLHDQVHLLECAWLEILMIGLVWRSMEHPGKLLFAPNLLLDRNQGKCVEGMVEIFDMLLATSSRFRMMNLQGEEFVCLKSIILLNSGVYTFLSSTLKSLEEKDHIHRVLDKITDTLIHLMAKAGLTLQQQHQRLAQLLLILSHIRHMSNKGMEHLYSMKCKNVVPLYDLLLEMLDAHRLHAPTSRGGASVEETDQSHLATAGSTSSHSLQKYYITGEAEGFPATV
# Experimental: as §1
# [8] = Clinical pharmacokinetics after oral administration in postmenopausal women; type: in vivo, human
# Experimental: Studies in the human were performed with oral administration of the compound in postmenopausal women. Several doses at single and multiple administration were evaluated. […] studies were performed with solutions in oily vehicles for parenteral administration. Oral treatment was performed with suspensions of cristalline J995 in aquaeous vehicle. Clinical studies were performed with amorphous drug substance galenically formulated with a mixture of conventional ingredients as capsules or tablets.
# [9] = target: T5, dehydroepiandrosterone sulphatase (DHA-STS) (Homo sapiens, UniProt P08842); conditions: cited from earlier work
# T5 sequence (P08842 22-583): T1 sequence (P08842 22-583)
# rat liver DHA-STS = target: T6, rat liver DHA-STS (Rattus norvegicus, UniProt P15589); conditions: in vivo, administered either orally or subcutaneously; cited from earlier work
# T6 construct: samples of liver tissue were obtained and oestrone sulphatase activity assayed; from tissue; host or cells: rat liver (after in vivo dosing)
# T6 sequence (P15589 20-577): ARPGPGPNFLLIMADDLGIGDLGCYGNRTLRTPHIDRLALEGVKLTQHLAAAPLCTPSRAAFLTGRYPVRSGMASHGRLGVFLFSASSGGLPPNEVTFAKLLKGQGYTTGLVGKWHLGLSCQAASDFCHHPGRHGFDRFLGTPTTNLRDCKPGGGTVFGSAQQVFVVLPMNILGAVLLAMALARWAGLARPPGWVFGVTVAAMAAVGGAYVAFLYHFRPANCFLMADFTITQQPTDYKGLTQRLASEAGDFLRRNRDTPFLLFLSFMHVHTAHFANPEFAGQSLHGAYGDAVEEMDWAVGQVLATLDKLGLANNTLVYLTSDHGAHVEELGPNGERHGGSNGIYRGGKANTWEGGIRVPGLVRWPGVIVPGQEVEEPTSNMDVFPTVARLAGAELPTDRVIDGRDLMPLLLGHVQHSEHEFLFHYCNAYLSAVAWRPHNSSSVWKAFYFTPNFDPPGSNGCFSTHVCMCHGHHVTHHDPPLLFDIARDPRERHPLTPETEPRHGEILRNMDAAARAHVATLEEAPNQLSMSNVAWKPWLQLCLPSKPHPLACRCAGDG
# [10] = rats; cited from earlier work
# uterine growth = conditions: cited from earlier work
# E1-STS [11] = target: T1, E1-STS; parameters: endogenous in cells; host or cells: MCF-7; dose or concentration left out as unconfirmed; conditions: intact MCF-7 cells; cited from earlier work
# [12] = single oral dose of 0.5 mg, FIG. 11
# [13] = single oral dose of 0.5 mg, over 5 days, FIG. 11
compound,measurement,setting,value
"COc1cc2c(cc1O)CC[C@@H]1[C@@H]2CC[C@]2(C)[C@@H](O)CC[C@@H]12 [2-MeOE2, 2-methoxyoestradiol]",growth of tumours in vivo,[1],inhibits the growth of tumours
same,endothelial cell proliferation and migration,endothelial cell,inhibits endothelial cell proliferation and migration
same,in vitro angiogenesis,angiogenesis,inhibits
same,microtubule polymerisation,microtubule,can inhibit microtubule polymerisation
same,inhibition of colchicine binding to tubulin,tubulin,weak inhibitor of colchicine binding to tubulin
oestrone-3-N-sulphamate,manner of inhibition of the E1-STS enzyme,E1-STS [2],weaker non-time-dependent inactivators
"C[C@]12CC[C@@H]3c4ccc(OS(N)(=O)=O)cc4CC[C@H]3[C@@H]1CC[C@@H]2O [J995, oestradiol-3-sulphamate]",amount circulating in the erythrocyte compartment,[3],98-99%
same,displacement of specifically bound radioactively labelled Oestradiol,estrogen receptor [4]; huge excess of J995,unable to displace specifically bound radioactively labelled Oestradiol
same,affinity to the estrogen receptor,estrogen receptor [4]; in vitro,no affinity to the estrogen receptor
same,specific binding of radioactively labelled compound to estrogen receptor,estrogen receptor [5],no specific binding
same,specific binding of radioactively labelled compound to estrogen receptor,estrogen receptor [6],no specific binding
same,specific binding of radioactively labelled compound to estrogen receptor,estrogen receptor [7],no specific binding
same,factor by which metabolite oestrone sulphate stays lower than under Oestradiol Valerate treatment,[8]; FIG. 5: single oral 2 mg J995 vs multiple doses 2 mg E2V,≥ 10
same,constancy of blood levels of oestrogens,[8]; FIGS. 5-10,"very constant, long lasting blood levels"
same,oestradiol levels compared with Oestradiol Valerate at the same dose,"[8]; FIGS. 6, 7",higher and much longer lasting oestradiol levels
same,oestrone sulphate levels in wash out phase,"[8]; after 14 days of 100 μg per day, wash out phase over 144 hours, FIG. 9",almost constant oestrone sulphate levels
same,orally administered compound reaching the erythrocyte pool,[8]; oral,~100%
same,prodrug appearing as oestrone and oestradiol in the circulation,"[8]; oral, FIG. 11",more than 50%
same,total ES amount in blood,[8]; [12],≈ 500 μg/5 L blood
same,total ES concentration per blood volume,[8]; [12],~100 μg/L blood
same,total ES erythrocyte conc.,[8]; [12],Ca. 200 ng/mL erythrocytes
same,E1S plasma level,[8]; [13],700 pg/mL
same,E1 plasma level,[8]; [13],40 pg/mL
same,Clearance of E1S calculated (amount),"[8]; single oral dose of 0.5 mg, 110 l×700 ng/l/day",385 μg/5 days
same,Clearance of E1 calculated (amount),"[8]; single oral dose of 0.5 mg, 1870 l×40 ng/l/day",374 μg/5 days
"CC12CCC3c4ccc(OS(N)(=O)=O)cc4CCC3C1CCC2=O (stereo not shown) [EMATE, oestrone-3-O-sulphamate]",manner of inhibition of the E1-STS enzyme,E1-STS [2],time- and concentration-dependent manner
same,inhibition of DHA-STS,[9],inhibits dehydroepiandrosterone sulphatase
same,inhibition of rat liver DHA-STS activity,rat liver DHA-STS,99%
same,effect on memory,[10],memory enhancing effect
same,oral uterotrophic activity relative to estradiol,"uterine growth; rats, oral",100 times
same,inhibition of E1-STS activity,E1-STS [11],more than 99%
oestrone-3-S-sulphamate,manner of inhibition of the E1-STS enzyme,E1-STS [2],weaker non-time-dependent inactivators
"COc1cc2c(cc1OS(N)(=O)=O)CC[C@@H]1[C@@H]2CC[C@]2(C)C(=O)CC[C@@H]12 [2-methoxyoestrone-3-O-sulphamate, reference compound]",potency as steroid sulphatase inhibitor relative to EMATE,E1-STS [2],equipotent with EMATE
same,oestrogenicity,"uterine growth; rat, in vivo",devoid of oestrogenicity
